These compounds were tested on Human tumor cells (assay: Soft Agar Assay (anchorage-independent growth, colony count after MTT staining)). Conditions: 0.3% agarose top layer over 0.6% agarose, 10-16 days at 37°C under 5% CO2.
Assay type: cell-based
Method: Anchorage-independent growth is a characteristic of tumorigenic cell lines. Human tumor cells can be suspended in growth medium containing 0.3% agarose and an indicated concentration of a farnesyl transferase inhibitor. The solution can be overlayed onto growth medium solidified with 0.6% agarose containing the same concentration of farnesyl transferase inhibitor as the top layer. After the top layer is solidified, plates can be incubated for 10-16 days at 37°C under 5% CO2 to allow colony outgrowth. After incubation, the colonies can be stained by overlaying the agar with a solution of MTT (3-[4,5-dimethylthiazol-2-yl]-2,5-diphenyltetrazolium bromide, Thiazolyl blue) (1 mg/mL in PBS). Colonies can be counted and the IC50's can be determined.

Row | IC50 [nM] | Structure (SMILES)
1 | 8 | O=C(CC1CCOCC1)N1CCC(C2c3c(Br)cc(Cl)cc3CCc3cc(Br)c[n+]([O-])c32)CC1 (centres unmarked) [Example 40]

The compounds below were run on COS Cell (assay: COS Cell IC50 (Cell-Based Assay), procedure of WO 95/10516). Conditions: one range stated for the listed examples.
Method: FPT IC50 (inhibition of farnesyl protein transferase. in vitro enzyme assay) and COS Cell IC50 (Cell-Based Assay) were determined following the assay procedures described in WO 95/10516, published April 20. 1995. GGPT IC50 (inhibition of geranylgeranyl protein transferase, in vitro enzyme assay). Cell Mat Assay, and anti-tumor activity (in vivo anti-tumor studies) could be determined by the assay procedures described in WO 95/10516. The disclosure of WO 95/10516 is incorporated herein by reference thereto.

Row | Structure (SMILES) | IC50 [nM]
2 | O=C(CN1CC[S+]([O-])CC1)N1CCN(C2c3ccc(Cl)c(Br)c3CCc3cc(Br)cnc32)CC1 (single isomer, unassigned) [Example 39] | 1.8 to 143
3 | O=C(CC1CCOCC1)N1CCC([C@H]2c3ncc(Br)cc3CCc3cc(Cl)cc(Br)c32)CC1 [Example 1] | 1.8 to 143
4 | O=C(C=C1CCOCC1)N1CCC([C@H]2c3ncc(Br)cc3CCc3cc(Cl)cc(Br)c32)CC1 [Example 2] | 1.8 to 143
5 | O=C(CC1CCSCC1)N1CCC([C@H]2c3ncc(Br)cc3CCc3cc(Cl)cc(Br)c32)CC1 [Example 5] | 1.8 to 143
6 | O=C(CC1CCCCO1)N1CCC([C@H]2c3ncc(Br)cc3CCc3cc(Cl)cc(Br)c32)CC1 (some centres unmarked) [Example 8] | 1.8 to 143
7 | O=C(CN1CCSCC1)N1CCC([C@H]2c3ncc(Br)cc3CCc3cc(Cl)cc(Br)c32)CC1 [Example 37] | 1.8 to 143
8 | O=C(CC1CCOCC1)N1CCC(C2c3c(Br)cc(Cl)cc3CCc3cc(Br)c[n+]([O-])c32)CC1 (centres unmarked) [Example 40] | 1.8 to 143

— patent EP1019398B1, “BENZO(5,6)CYCLOHEPTA(1,2-B)PYRIDINE DERIVATIVES USEFUL FOR INHIBITION OF FARNESYL PROTEIN TRANSFERASE” (SCHERING CORPORATION, priority 1997, dated 1998)
